From US12582727B2, “Chemiluminescent and fluorescent nanoparticle for optical imaging of cancer” (priority 2018, dated 2026)

Tests used:
[1] = system: NOK (Normal oral keratinocyte); assay: Cellular uptake, NOK cells (FRα-negative); type: cell-based; conditions: 1 and 3 hours of incubation, comparison among samples
Procedure: The cell internalization of CNPs was characterized by a fluorescence microscopy. As shown in FIGS. 14A and 14B, the CNPs quickly enter into NOK and MOC2 cells. […] Through the cellular uptake study, it was confirmed that CNPs efficiently enter into the cells within 1 hour.
To evaluate the cellular uptake, NOK (Normal oral keratinocyte) and MOC2 (immunogenic murine squamous cell carcinoma) cells were used as folate receptor alpha (FRα)-negative and -positive cells, respectively (FIGS. 15A and 15B).
For visualization of the cellular uptake, the NOK and MOC2 cells in each well were treated with free-Ce6, GCCe6, FA-GCCe6, CNP and FA-CNP and then subjected to DAPI staining. […] The fluorescence images matched to the corresponding data in FIGS. 15A and 15B. The enhancement of the cellular uptake is attributed to the presence of FA facilitating receptor-mediated endocytosis.

[2] = system: liver, lungs, kidney, heart, and spleen; assay: Histology (H&E) of internal organs for toxicity; type: in vivo; conditions: compared to control (non-treated) group, 2 days post-intravenous injection
Procedure: After euthanizing mice with carbon dioxide gas, the internal organs (liver, kidney, spleen, heart, and lung) and tumor tissue were extracted and photographed using IVIS imaging. In addition, tumor tissues were excised from the mice at 2 days post-intravenous injection of free-Ce6, GCCe6, FA-GCCe6, CNP and FA-CNP (0.1 mL equivalent Ce6 concentration of 1.34×10^−5 mol/kg body weight) fixed with 10% Neutral Buffered Formalin solution, and embedded in paraffin, followed by sectioning. The sliced internal organs (5 μm in thickness) were stained with hematoxylin and eosin (H&E) and observed under an optical microscope. In addition, sliced tumor tissues were determined their FL and CL imaging under a confocal laser scanning microscope (Zeusis Nikon, Tokyo, Japan).

## chlorin e6 [free-Ce6]
[1]
  cellular uptake amount: no significant difference
[2]
  toxicity in H&E stained internal organs: no significant cellular toxicity
